Results filed as inconclusive are left out. Calls of active or inactive are those of the source.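 Rule for the calls: active = Compounds that reduce signal, with fitted half-maximal dose at or under twice the top valid tested dose; inconclusive = Poor fit, or flat curve losing 30 to 70% of signal; inactive = Potency past limit, flat within 30%, or opposite direction.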

A short description of the first assay: HEK293T cell cytotoxicity, dose response, cytotoxicity control, ATP luminescence, cherry-pick samples (AID 687005). The following applies: HEK293T viability, ATP luminescence (CellTiter-Glo), 48 h; at 23.5 µM (top of the series).
As for `C[C@H]1CN([C@@H](C)CO)C(=O)c2cc(NC(=O)Nc3ccc4c(c3)OCO4)ccc2O[C@@H]1CN(C)CC1CCCCC1`, the activity change, negative = cytotoxicity is -55.7% (inactive).

As to `Cc1noc(C)c1S(=O)(=O)Nc1ccc2c(c1)CC(=O)N([C@H](C)CO)C[C@H](C)[C@H](CN(C)S(=O)(=O)c1cccs1)O2`, the activity change, negative = cytotoxicity is -4.72% (inactive).

As to `COc1ccc(CN(C)C[C@@H]2Oc3ccc(NS(C)(=O)=O)cc3CC(=O)N([C@H](C)CO)C[C@H]2C)cc1`, the activity change, negative = cytotoxicity is 1.11% (inactive).

`CC(C)NC(=O)Nc1ccc2c(c1)CC(=O)N([C@@H](C)CO)C[C@H](C)[C@H](CN(C)Cc1ccc3c(c1)OCO3)O2`: the activity change, negative = cytotoxicity is 26.2% (inactive).

As for `CO[C@H]1CN(C)C(=O)c2cc(NC(C)=O)ccc2OC[C@H](C)N(Cc2cccc(F)c2)C[C@@H]1C`, the activity change, negative = cytotoxicity is -25.3% (inactive).

Regarding `C[C@@H]1CN([C@@H](C)CO)C(=O)CCCn2nncc2CO[C@H]1CN(C)C(=O)Oc1cccc2ccccc12`, the activity change, negative = cytotoxicity is 17.9% (inactive).

As for `COc1ccc(CN(C)C[C@@H]2Oc3ccc(NC(=O)C4CC4)cc3C(=O)N([C@@H](C)CO)C[C@H]2C)cc1`, the activity change, negative = cytotoxicity was 8.64% (inactive).

As for `COc1ccccc1-c1ccc([C@H]2[C@@H](C#N)N(C(=O)C3CC3)[C@@H]2CO)cc1`, the activity change, negative = cytotoxicity was 27.7% (inactive).

Take `CO[C@@H]1CN(C)C(=O)c2ccc(NC(C)=O)cc2OC[C@@H](C)N(C(=O)Cc2cccnc2)C[C@H]1C`: the activity change, negative = cytotoxicity is -26.2% (inactive).

Still in this assay, the particulars now being: HEK293T viability, ATP luminescence (CellTiter-Glo), 48 h; at 26 µM (top of the series).
For `CNC[C@@H]1OCCCC[C@H](C)Oc2ccc(NC(=O)c3ccccc3)cc2C(=O)N([C@@H](C)CO)C[C@@H]1C`, the activity change, negative = cytotoxicity was 6.33% (inactive).

As to `COC(=O)C1=C(C)N(Cc2ccc(Cl)cc2)C(=S)NC1c1ccc(F)cc1` (configuration not stated), the activity change, negative = cytotoxicity was -32.8% (inactive).

As to `O=C(C[C@@H]1CC[C@H](NC(=O)Cc2ccccn2)[C@@H](CO)O1)NCCc1ccccc1`, the activity change, negative = cytotoxicity is -8.35% (inactive).

Consider `COCC(=O)N(C)C[C@@H]1Oc2ncc(C#CCC3CCCC3)cc2C(=O)N([C@@H](C)CO)C[C@H]1C`, for which the activity change, negative = cytotoxicity is 1.81% (inactive).

Turning to `CCC(=O)N1[C@@H]2Cn3c(ccc(C4=CCCCC4)c3=O)[C@H]1[C@@H](C(=O)N[C@H](C)c1ccccc1)[C@@H]2CO`, the activity change, negative = cytotoxicity was -16.5% (inactive).

As for `CNC[C@@H]1Oc2c(NS(=O)(=O)c3ccc(Cl)cc3)cccc2C(=O)N([C@H](C)CO)C[C@H]1C`, the activity change, negative = cytotoxicity is 24.2% (inactive).

`O=C(C[C@@H]1C=C[C@@H](NC(=O)Nc2cc(F)ccc2F)[C@H](CO)O1)NCCCN1CCOCC1`: the activity change, negative = cytotoxicity was 0.247% (inactive).

For the molecule `O=C(c1ccco1)N1N=C(c2cccs2)CC1c1ccc(F)cc1` (configuration not stated), the activity change, negative = cytotoxicity was -39% (inactive).

`CCC(=O)N(C)C[C@@H]1Oc2cc(C#CC(C)(C)O)ccc2S(=O)(=O)N([C@H](C)CO)C[C@H]1C`: the activity change, negative = cytotoxicity was -15.7% (inactive).

As for `CO[C@@H](CN(C)Cc1ccc2c(c1)OCO2)[C@@H](C)CN(C(=O)c1ccccc1)[C@H](C)CO`, the activity change, negative = cytotoxicity is 29.3% (inactive).

In the case of `CNC[C@H]1OCCCC[C@H](C)Oc2ccc(NC(=O)Cc3ccccc3)cc2C(=O)N([C@H](C)CO)C[C@@H]1C`, the activity change, negative = cytotoxicity was -17.1% (inactive).

Take `CO[C@H]1CN(C)C(=O)c2cc(NS(=O)(=O)CC(F)(F)F)ccc2OC[C@@H](C)N(Cc2cccnc2)C[C@@H]1C`: the activity change, negative = cytotoxicity is -36.3% (inactive).

For `C[C@H](O)C#Cc1ccc([C@H]2[C@H](CO)N3CCCCN(CC4CCOCC4)C[C@@H]23)cc1`, the activity change, negative = cytotoxicity was 21.6% (inactive).

As to `Cc1cc(Cl)ccc1NC(=S)NCc1ccc(F)cc1`, the activity change, negative = cytotoxicity was 6.1% (inactive).

Turning to `CN1C(=O)N[C@@H]2c3ccccc3O[C@@]1(C)[C@@H]2COC(=O)c1ccccc1`, the activity change, negative = cytotoxicity is -8.64% (inactive).

For `N#Cc1ccc(C23CC4(C2)[C@H](CN(Cc2ccc(C(F)(F)F)cc2)[C@@H]4c2ccccc2)C3c2ccc(C(F)(F)F)cc2)cc1` (some centres not stated), the activity change, negative = cytotoxicity is 10.4% (inactive).

As to `COc1ccc(NC(=O)CSc2ncnc3c2cnn3CCc2ccccc2)cc1`, the activity change, negative = cytotoxicity was -33.3% (inactive).

`CC(=O)N[C@H]1CC[C@H](CCNC(=O)C2CCC2)O[C@@H]1CO`: the activity change, negative = cytotoxicity was 10.8% (inactive).

With `C[C@H]1CN([C@@H](C)CO)C(=O)c2cccc(NS(C)(=O)=O)c2O[C@H]1CN(C)C(=O)Nc1ccc2c(c1)OCO2`, the activity change, negative = cytotoxicity was 20.3% (inactive).

`CC(C)NC(=O)Nc1cccc2c1O[C@H](CN(C)C)[C@H](C)CN([C@@H](C)CO)C2=O`: the activity change, negative = cytotoxicity was 22% (inactive).

Turning to `CCCNC(=O)N(C)C[C@@H]1Oc2ncc(C#CCc3ccccc3)cc2C(=O)N([C@@H](C)CO)C[C@@H]1C`, the activity change, negative = cytotoxicity is 12% (inactive).

For the molecule `CCN1C(=S)N[C@@H](c2cccc(F)c2)C(C(=O)OC)=C1C`, the activity change, negative = cytotoxicity was 5.06% (inactive).

`C[C@@H]1CCCCO[C@H](CN(C)C(=O)c2ccccc2)[C@@H](C)CN([C@@H](C)CO)C(=O)c2cc(NC(=O)c3ccccc3)ccc2O1`: the activity change, negative = cytotoxicity is 5.72% (inactive).

For `O=C(NC(=S)Nc1ccc(CN2CCOCC2)cc1)c1ccc([N+](=O)[O-])cc1`, the activity change, negative = cytotoxicity was -19.4% (inactive).

Consider `C[C@H](CO)N1C[C@H](C)[C@H](CN(C)Cc2ccccc2)Oc2cc(C#Cc3ccccn3)ccc2S1(=O)=O`, for which the activity change, negative = cytotoxicity was -48.6% (inactive).

Regarding `CCOC(=O)CSc1ncnc2c1cnn2-c1ccc(Cl)cc1`, the activity change, negative = cytotoxicity was 0.015% (inactive).

With `O=C(c1c(Cl)cccc1Cl)N1CCN(c2ccccn2)CC1`, the activity change, negative = cytotoxicity was -3.99% (inactive).

For `O=C(C[C@@H]1CC[C@@H]2[C@H](COC[C@H](O)CN2Cc2cccc(C(F)(F)F)c2)O1)NCc1ccccc1`, the activity change, negative = cytotoxicity was 4.02% (inactive).

Turning to `CCc1ccc(C(C)NC(=S)NCc2ccc(F)cc2)cc1` (configuration not stated), the activity change, negative = cytotoxicity was 17.2% (inactive).

As for `CCNC(=O)Nc1ccc2c(c1)C(=O)N(C)[C@H]1CC[C@H](CC(=O)N[C@@H](C)c3ccccc3)O[C@H]1CO2`, the activity change, negative = cytotoxicity was 75.7% (inactive).

`CCNC(=O)C[C@@H]1CC[C@H]2[C@@H](COC[C@@H](O)CN2S(=O)(=O)c2ccccc2F)O1`: the activity change, negative = cytotoxicity is 51.2% (inactive).

For `CCCC#Cc1ccc2c(c1)O[C@@H](CN(C)C)[C@@H](C)CN([C@@H](C)CO)S2(=O)=O`, the activity change, negative = cytotoxicity is 13.6% (inactive).

As to `O=C1CCC(C(=O)Nc2ccc([N+](=O)[O-])cc2)N1` (configuration not stated), the activity change, negative = cytotoxicity was -9.02% (inactive).

Consider `O=C(CSc1ncnc2c1cnn2-c1ccc(F)cc1)NC1CCCC1`, for which the activity change, negative = cytotoxicity was -30.5% (inactive).

Consider `CCC(=O)N[C@H]1C=C[C@@H](CC(=O)OC)O[C@@H]1CO`, for which the activity change, negative = cytotoxicity was -29.7% (inactive).

With `C[C@H]1CN([C@@H](C)CO)C(=O)c2cc(C#Cc3ccccn3)cnc2O[C@H]1CN(C)Cc1ccncc1`, the activity change, negative = cytotoxicity was 38.4% (inactive).

Consider `C[C@@H](NC(=O)C[C@H]1CC[C@@H](NC(=O)Cc2ccccn2)[C@@H](CO)O1)c1ccccc1`, for which the activity change, negative = cytotoxicity is -16.9% (inactive).

On to `S=C(NCc1ccccc1)NCC1COc2ccccc2O1` (configuration not stated), for which the activity change, negative = cytotoxicity was -15.9% (inactive).

For the molecule `CCC(=O)N1[C@H](CO)[C@H](c2ccc(-c3ccc(F)cc3)cc2)[C@@H]1CNC(C)=O`, the activity change, negative = cytotoxicity is -42.1% (inactive).

With `Cc1ccc(N(C(=O)C2CCC(=O)N2)C2(C(=O)NC3CCCC3)CCCCC2)cc1` (configuration not stated), the activity change, negative = cytotoxicity is -43.5% (inactive).

On to `C[C@H]1CN([C@@H](C)CO)S(=O)(=O)c2ccc(Br)cc2O[C@@H]1CN(C)C(=O)CCN1CCCCC1`, for which the activity change, negative = cytotoxicity is 38.4% (inactive).

In the case of `COc1ccc(-n2ncc3c(SCC(=O)OC(C)C)ncnc32)cc1`, the activity change, negative = cytotoxicity is -5.94% (inactive).

Turning to `Cc1cc(C)c(NC(=O)C(C)N2CCCCCC2)c(C)c1` (configuration not stated), the activity change, negative = cytotoxicity was 16.2% (inactive).

In the case of `CCNC(=O)C[C@H]1CC[C@@H](NC(=O)NC2CCCCC2)[C@H](CO)O1`, the activity change, negative = cytotoxicity is -2.42% (inactive).

For `CCNC(=O)CN(c1ccccc1)S(=O)(=O)c1ccc(Cl)cc1`, the activity change, negative = cytotoxicity is -16.3% (inactive).

Take `Cc1ccc(C)c(NC(=O)C2CCCN2C(=O)NC2CCCCC2)c1` (configuration not stated): the activity change, negative = cytotoxicity was 25.9% (inactive).

`C[C@@H]1CCCCO[C@@H](CN(C)S(=O)(=O)c2cccs2)[C@H](C)CN([C@@H](C)CO)C(=O)c2cc(NC(=O)CCC(F)(F)F)ccc2O1`: the activity change, negative = cytotoxicity was -7.43% (inactive).

As to `C[C@H]1CN([C@@H](C)CO)C(=O)c2cc(C#CC3(O)CCCC3)cnc2O[C@@H]1CN(C)Cc1cccnc1`, the activity change, negative = cytotoxicity was 13.8% (inactive).

Regarding `CC=Cc1ccc2n(c1=O)C[C@@H]1[C@@H](CO)[C@H](C(=O)NCc3ccc4c(c3)OCO4)[C@H]2N1C(=O)C1CC1` (mixture of isomers), the activity change, negative = cytotoxicity was -8.54% (inactive).

Staying with this assay, now noted: HEK293T viability, ATP luminescence (CellTiter-Glo), 48 h; at 30 µM (top of the series).
On to `NC(=O)CN(c1ccccc1)S(=O)(=O)c1ccc(F)cc1`, for which the activity change, negative = cytotoxicity is -2.68% (inactive).

For the molecule `COCCN1C(=S)N[C@@H](c2ccccc2)C(C(=O)OC)=C1C`, the activity change, negative = cytotoxicity is 28.9% (inactive).

The assay is the same for the next values; noted with them: HEK293T viability, ATP luminescence (CellTiter-Glo), 48 h; at 42 µM (top of the series).
Consider `CCc1ccc(NC(=O)C2NC(=O)CC2c2ccccc2)cc1` (configuration not stated), for which the activity change, negative = cytotoxicity was -46.7% (inactive).

Still in this assay, the particulars now being: HEK293T viability, ATP luminescence (CellTiter-Glo), 48 h; at 46 µM (top of the series).
Consider `CCC(C)(C(=O)Nc1cccc(C)c1)N1CCC1=O` (configuration not stated), for which the activity change, negative = cytotoxicity was 0.095% (inactive).

(Values after PubChem BioAssay AID687005 (Broad Institute, 2013).)
